Data published in patent US9550742B2, “11-OXO-10,11-dihydrodibenzo[B,F][1,4]thiazepine S-oxide derivatives and their use as dopamine D2 receptor antagonists” (The United States of America, as Represented by the …, priority 2013, dated 2017).
Where two headings read alike, the source gives them in different places.

Key:
D2 DAR = target: T1, D2 DAR (Homo sapiens, UniProt P14416); assay: D2 Ca^2+ screen assay (calcium accumulation, HEK293 T-REx with Gqi5); format: cell-based
T1 construct: expressed in transfected cells; host or cells: HEK293 T-REx, Tet-inducible, with chimeric G-protein Gqi5
T1 sequence (P14416 whole entry): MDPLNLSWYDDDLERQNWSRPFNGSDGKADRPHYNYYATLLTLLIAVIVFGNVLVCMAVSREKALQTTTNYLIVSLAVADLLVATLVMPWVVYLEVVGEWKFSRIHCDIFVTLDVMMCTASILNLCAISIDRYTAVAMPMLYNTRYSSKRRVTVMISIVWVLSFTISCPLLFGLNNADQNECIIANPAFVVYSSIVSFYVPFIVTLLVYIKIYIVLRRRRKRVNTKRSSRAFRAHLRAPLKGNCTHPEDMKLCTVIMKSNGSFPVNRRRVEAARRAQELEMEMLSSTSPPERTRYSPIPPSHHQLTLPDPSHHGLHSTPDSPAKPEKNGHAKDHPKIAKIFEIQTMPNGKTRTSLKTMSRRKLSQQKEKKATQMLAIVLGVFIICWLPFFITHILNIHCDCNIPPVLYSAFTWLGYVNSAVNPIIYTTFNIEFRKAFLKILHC
How it was run: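 HEK293 T-REx cells co-expressing Gqi5 were loaded with Fluo-8 AM dye in HBSS + 10 mM HEPES with quencher for 45–90 min in the dark at ambient temperature. 23 nL compound or dopamine control was pinned in, and cytosolic Ca2+ fluorescence was recorded on FDSS in non-stimulated mode for 180 s to detect agonism.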

Alpha1B = Alpha1B (Homo sapiens, UniProt P35368); assay: Affinity profile panel: Alpha1B; settings: inhibition of binding
MOR = MOR (Homo sapiens, UniProt P35372); assay: Affinity profile panel: MOR; settings: inhibition of binding
Chain of MOR (P35372 whole entry): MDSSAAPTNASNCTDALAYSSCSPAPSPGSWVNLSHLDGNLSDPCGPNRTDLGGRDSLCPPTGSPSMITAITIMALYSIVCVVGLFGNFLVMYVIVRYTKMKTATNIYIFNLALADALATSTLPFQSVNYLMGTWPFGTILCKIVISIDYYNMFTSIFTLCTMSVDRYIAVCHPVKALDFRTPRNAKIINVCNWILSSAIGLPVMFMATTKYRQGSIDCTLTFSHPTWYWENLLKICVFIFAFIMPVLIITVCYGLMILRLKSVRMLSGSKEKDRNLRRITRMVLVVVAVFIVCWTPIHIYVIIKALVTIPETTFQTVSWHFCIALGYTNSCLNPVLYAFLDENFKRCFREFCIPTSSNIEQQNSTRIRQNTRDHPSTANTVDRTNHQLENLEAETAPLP

M4 = M4 (Homo sapiens, UniProt P08173); assay: Affinity profile panel: M4; settings: inhibition of binding
KOR = KOR (Homo sapiens, UniProt P41145); assay: Affinity profile panel: KOR; settings: inhibition of binding
Chain of KOR (P41145 whole entry): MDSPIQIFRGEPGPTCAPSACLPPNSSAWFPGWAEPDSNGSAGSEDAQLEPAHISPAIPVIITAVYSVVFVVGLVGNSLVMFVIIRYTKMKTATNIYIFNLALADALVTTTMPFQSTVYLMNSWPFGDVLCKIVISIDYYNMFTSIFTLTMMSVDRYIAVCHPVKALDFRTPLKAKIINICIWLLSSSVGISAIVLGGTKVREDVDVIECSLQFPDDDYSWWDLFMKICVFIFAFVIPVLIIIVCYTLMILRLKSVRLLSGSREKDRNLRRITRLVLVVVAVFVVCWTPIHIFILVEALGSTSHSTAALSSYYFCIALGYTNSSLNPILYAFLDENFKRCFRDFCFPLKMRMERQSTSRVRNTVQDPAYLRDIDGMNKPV

Sigma 1 = Sigma 1 (Homo sapiens, UniProt Q99720); assay: Affinity profile panel: Sigma 1; settings: inhibition of binding
Chain of Sigma 1 (Q99720 whole entry): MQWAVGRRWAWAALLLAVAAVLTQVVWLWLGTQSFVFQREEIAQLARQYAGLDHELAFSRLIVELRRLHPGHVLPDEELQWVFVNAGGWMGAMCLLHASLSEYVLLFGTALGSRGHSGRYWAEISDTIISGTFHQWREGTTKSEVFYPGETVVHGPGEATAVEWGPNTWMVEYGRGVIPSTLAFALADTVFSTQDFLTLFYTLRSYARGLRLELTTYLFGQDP

5-HT5A = 5-HT5A (Homo sapiens, UniProt P47898); assay: Affinity profile panel: 5-HT5A; settings: inhibition of binding
Chain of 5-HT5A (P47898 whole entry, species assumed): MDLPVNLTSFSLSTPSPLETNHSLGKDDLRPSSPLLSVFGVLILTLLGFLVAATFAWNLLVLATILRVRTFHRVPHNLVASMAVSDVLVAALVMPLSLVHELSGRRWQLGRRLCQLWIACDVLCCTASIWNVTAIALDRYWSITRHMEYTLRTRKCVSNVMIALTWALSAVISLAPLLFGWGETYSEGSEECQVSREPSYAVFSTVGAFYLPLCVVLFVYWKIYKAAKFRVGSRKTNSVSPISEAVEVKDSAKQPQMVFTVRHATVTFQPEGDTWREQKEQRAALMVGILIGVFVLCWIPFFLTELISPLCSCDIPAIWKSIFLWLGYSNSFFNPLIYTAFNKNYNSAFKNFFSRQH

DAT = DAT (Homo sapiens, UniProt Q01959); assay: Affinity profile panel: DAT; settings: inhibition of binding
Description: (§1) Antipsychotic drugs (depending on the specific drug) typically interact with a range of serotonergic, adrenergic, histaminergic, and muscarinic receptors.

Beta1 = Beta1 (Homo sapiens, UniProt P08588); assay: Affinity profile panel: Beta1; settings: inhibition of binding
Chain of Beta1 (P08588 whole entry): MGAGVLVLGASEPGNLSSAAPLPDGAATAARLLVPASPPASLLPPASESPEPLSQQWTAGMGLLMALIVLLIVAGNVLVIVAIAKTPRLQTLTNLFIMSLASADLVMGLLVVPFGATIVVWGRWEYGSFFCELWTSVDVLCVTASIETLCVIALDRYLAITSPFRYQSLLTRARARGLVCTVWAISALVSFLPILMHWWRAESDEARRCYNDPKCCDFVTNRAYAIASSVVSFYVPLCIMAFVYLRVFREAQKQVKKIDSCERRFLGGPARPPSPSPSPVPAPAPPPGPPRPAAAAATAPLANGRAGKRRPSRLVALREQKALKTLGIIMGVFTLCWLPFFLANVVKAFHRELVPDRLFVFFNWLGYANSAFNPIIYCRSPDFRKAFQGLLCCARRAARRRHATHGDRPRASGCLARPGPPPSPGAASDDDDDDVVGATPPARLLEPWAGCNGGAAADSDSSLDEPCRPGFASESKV

Alpha2B = Alpha2B (Homo sapiens, UniProt P18089); assay: Affinity profile panel: Alpha2B; settings: inhibition of binding
H3 = H3 (Homo sapiens, UniProt Q9Y5N1); assay: Affinity profile panel: H3; settings: inhibition of binding
Chain of H3 (Q9Y5N1 whole entry): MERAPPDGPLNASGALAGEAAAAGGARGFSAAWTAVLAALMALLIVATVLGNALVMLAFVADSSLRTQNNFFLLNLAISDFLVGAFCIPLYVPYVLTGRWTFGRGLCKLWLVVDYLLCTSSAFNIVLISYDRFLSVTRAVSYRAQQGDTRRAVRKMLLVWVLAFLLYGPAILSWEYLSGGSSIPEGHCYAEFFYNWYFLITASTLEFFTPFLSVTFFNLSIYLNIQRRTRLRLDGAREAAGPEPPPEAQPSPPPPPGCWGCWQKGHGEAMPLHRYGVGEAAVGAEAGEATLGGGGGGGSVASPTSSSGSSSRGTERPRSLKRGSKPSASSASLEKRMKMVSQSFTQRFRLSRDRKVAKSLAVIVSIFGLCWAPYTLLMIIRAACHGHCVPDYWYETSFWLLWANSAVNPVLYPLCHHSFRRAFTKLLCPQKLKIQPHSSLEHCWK

Alpha2A = Alpha2A (Homo sapiens, UniProt P08913); assay: Affinity profile panel: Alpha2A; settings: inhibition of binding
5-HT2C = 5-HT2C (Homo sapiens, UniProt P28335); assay: Affinity profile panel: 5-HT2C; settings: inhibition of binding
Chain of 5-HT2C (P28335 33-458, species assumed): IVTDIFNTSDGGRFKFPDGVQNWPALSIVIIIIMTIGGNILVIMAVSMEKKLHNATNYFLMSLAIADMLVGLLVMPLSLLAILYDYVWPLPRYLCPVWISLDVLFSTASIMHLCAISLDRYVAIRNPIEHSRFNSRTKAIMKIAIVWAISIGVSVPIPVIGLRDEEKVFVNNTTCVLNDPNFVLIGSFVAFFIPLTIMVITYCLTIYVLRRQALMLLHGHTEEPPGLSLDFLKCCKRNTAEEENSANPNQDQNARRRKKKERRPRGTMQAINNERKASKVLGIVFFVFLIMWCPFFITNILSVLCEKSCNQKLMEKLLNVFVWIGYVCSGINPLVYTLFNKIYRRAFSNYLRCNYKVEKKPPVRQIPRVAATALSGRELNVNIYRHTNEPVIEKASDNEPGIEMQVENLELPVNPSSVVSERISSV
Description: as §1

M1 = M1 (Homo sapiens, UniProt P11229); assay: Affinity profile panel: M1; settings: inhibition of binding
Chain of M1 (P11229 whole entry): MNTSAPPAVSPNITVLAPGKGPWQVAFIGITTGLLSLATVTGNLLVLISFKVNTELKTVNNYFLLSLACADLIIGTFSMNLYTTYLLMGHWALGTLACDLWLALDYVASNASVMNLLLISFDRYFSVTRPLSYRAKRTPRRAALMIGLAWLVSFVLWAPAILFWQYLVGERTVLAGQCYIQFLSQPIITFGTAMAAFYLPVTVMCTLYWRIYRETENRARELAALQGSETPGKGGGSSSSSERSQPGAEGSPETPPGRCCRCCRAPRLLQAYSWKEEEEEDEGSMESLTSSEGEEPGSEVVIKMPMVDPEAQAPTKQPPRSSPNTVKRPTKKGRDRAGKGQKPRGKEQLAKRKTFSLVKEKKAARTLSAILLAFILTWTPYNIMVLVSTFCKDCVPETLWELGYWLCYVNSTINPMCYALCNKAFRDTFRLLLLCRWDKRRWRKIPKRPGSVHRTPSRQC

M3 = M3 (Homo sapiens, UniProt P20309); assay: Affinity profile panel: M3; settings: inhibition of binding
Chain of M3 (P20309 whole entry): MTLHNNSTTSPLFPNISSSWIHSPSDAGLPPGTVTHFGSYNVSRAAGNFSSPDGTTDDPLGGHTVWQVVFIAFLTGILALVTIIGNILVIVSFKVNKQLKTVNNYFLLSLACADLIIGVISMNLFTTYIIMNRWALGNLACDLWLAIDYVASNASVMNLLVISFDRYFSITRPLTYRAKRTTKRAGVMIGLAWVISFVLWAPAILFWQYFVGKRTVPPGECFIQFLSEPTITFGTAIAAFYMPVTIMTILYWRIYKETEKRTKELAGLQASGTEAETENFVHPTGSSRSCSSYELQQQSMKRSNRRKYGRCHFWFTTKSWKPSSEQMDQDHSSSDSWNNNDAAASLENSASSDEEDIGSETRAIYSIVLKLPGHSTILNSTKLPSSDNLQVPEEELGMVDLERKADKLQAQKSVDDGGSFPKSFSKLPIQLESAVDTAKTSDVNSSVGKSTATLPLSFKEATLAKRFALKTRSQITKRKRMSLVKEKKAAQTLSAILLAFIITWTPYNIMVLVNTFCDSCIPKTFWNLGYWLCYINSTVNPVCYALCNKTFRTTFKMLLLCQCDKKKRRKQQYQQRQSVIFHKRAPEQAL

M2 = M2 (Homo sapiens, UniProt P08172); assay: Affinity profile panel: M2; settings: inhibition of binding
Chain of M2 (P08172 whole entry): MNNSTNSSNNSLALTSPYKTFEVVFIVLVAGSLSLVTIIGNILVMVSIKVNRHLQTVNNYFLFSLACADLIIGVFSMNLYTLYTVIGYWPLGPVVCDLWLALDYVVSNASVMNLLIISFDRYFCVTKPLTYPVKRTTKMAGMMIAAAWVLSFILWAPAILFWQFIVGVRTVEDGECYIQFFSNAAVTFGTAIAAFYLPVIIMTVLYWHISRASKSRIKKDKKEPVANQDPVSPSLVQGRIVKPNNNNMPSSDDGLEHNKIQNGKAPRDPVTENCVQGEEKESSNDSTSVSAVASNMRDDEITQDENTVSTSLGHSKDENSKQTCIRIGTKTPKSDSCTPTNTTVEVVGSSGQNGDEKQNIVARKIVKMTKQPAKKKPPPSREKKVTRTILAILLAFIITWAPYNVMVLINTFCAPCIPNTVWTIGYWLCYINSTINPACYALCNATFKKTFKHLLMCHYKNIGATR

5-HT6 = 5-HT6 (Homo sapiens, UniProt P50406); assay: Affinity profile panel: 5-HT6; settings: inhibition of binding
PBR = PBR (Homo sapiens, UniProt P30536); assay: Affinity profile panel: PBR; settings: inhibition of binding
Chain of PBR (P30536 whole entry, species assumed): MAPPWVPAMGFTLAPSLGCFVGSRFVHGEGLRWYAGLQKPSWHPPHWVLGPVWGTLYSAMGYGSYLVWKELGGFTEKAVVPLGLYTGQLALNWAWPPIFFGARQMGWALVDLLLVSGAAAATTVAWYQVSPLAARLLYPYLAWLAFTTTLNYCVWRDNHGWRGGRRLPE

M5 = M5 (Homo sapiens, UniProt P08912); assay: Affinity profile panel: M5; settings: inhibition of binding
D2 receptor = assay: PET study, displacement of the D2 receptor label [^11C]SV-130; format: in vivo, monkeys; settings: i.v.
Experimental: Positron emission tomography (PET) was performed using live monkeys. A radioactive PET probe ([^11C]SV-130) for the D2 receptor was injected intravenously. PET images of coronal sections of the brain were obtained at the level of the caudate putamen. […] Monkeys were treated (i.v.) with either 1 mg/kg or 5 mg/kg ML321, a compound of Formula I (compound 55, Example 61).
The time course of PET ([^11C]SV-130) labelling of the caudate, putamen, and cerebellumum in the absence or presence of either 1 mg/kg or 5 mg/kg ML321 was plotted. […] When ML321 was injected i.v. the [^11C]SV-130 signal decreased gradually from about 20 minutes through the 100 minute observation period. The [^11C]SV-130 signal decrease was particularly dose dependent in the putamen graph.
The significance of the PET [^11C]SV-130 labelling data are two-fold. […] Second, the experiments provide direct evidence that ML321 can occupy D2 receptors in the CNS in living animals and completely block D2 receptors at a reasonable pharmacological dose.

SMILES: CN1C(=O)c2ccccc2[S@+]([O-])c2ccc(C(=O)NCCc3cccs3)cc21 [Compound 55, 10-Methyl-11-oxo-N-(2-(thiophen-2-yl)ethyl)-10,11-dihydrodibenzo[b,f][1,4]thiazepine-8-carboxamide 5-(S)-oxide]
- AC50 (D2 DAR; dopamine D2 calcium release assay of Example 1, read-out: Ca^2+ AC50): < 1000 nM
- AC50 (D2 DAR; dose response curve, read-out: D2 Ca^2+ assay AC50): 70 nM
- Inhibition (%) Alpha1B (Alpha1B): −0.2%
- Inhibition (%) MOR (MOR): 5.7%
- Inhibition (%) M4 (M4): 2.4%
- Inhibition (%) KOR (KOR): 18.2%
- Inhibition (%) Sigma 1 (Sigma 1): 17.5%
- Inhibition (%) 5-HT5A (5-HT5A): 9.5%
- Inhibition (%) DAT (DAT): −5.3%
- Inhibition (%) Beta1 (Beta1): 12.6%
- Inhibition (%) Alpha2B (Alpha2B): 31.2%
- Inhibition (%) H3 (H3): −23.6%
- Inhibition (%) Alpha2A (Alpha2A): 7.3%
- Inhibition (%) 5-HT2C (5-HT2C): 64.5%
- Inhibition (%) M1 (M1): −0.6%
- Inhibition (%) M3 (M3): 5.2%
- Inhibition (%) M2 (M2): −1.7%
- Inhibition (%) 5-HT6 (5-HT6): −15.6%
- Inhibition (%) PBR (PBR): 31%
- Inhibition (%) M5 (M5): −6.5%
- Blocking of [^11C]SV-130 D2 PET probe binding in the caudate putamen (D2 receptor; monkeys, 1 mg/kg or 5 mg/kg, images 20 to 100 minutes post injection): blocks the binding of the D2 receptor PET probe in the caudate putamen in a dose-dependent fashion
- Blocking of [^11C]SV-130 labeling (D2 receptor; monkeys, 5 mg/kg): almost completely blocked
- Blood-brain barrier crossing (D2 receptor; primates, PET evidence): can cross the blood-brain barrier in primates
